Measurements: patent US10392419B2, “Modified cyclic dinucleotide compounds” (Boehringer Ingelheim International GmbH, priority 2017, dated 2019)

How the values were obtained:
[1] = biological target: Human STING (hSTING, residues 155-341, wild-type sequence) (Homo sapiens, UniProt Q86WV6, H232R); assay: hSTING binding by differential scanning fluorimetry (DSF); settings: for binding to human STING compared to the other diastereomer(s) of the same Example / thermal shift compared to ribose Example 5/Compound 23 in WO 2016/145102: in words
Human STING (hSTING, residues 155-341, wild-type sequence), sequence (Q86WV6 155-341 H232R limits assumed): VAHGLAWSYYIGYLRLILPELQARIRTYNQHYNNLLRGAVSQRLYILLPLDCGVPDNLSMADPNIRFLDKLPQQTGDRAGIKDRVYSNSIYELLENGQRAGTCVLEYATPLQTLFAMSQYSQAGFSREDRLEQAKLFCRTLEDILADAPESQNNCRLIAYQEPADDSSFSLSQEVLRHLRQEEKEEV
Method: Differential Scanning Fluorimetry (DSF)
Assay buffer: 20 mM Tris, 150 mM NaCl pH7.5
Target Protein: Human STING (hSTING, residues 155-341, wild-type sequence with N-terminal His8-tag and TEV-cleavage site, MW: 23601.5 Da)
Protein stock solution: c=309 μM stock solution in assay buffer
Final Assay concentrations of test compounds: 100 μM, 3 μM target protein, “5×” SYPR Orange
1) Compound stock solutions and dilutions thereof were prepared in assay buffer
2) 5 μl fluorescent dye stock solution (5000×SYPRO Orange) was mixed with 50 μl target protein (309 μM) and 945 μl buffer.
3) 2 μl of this protein-dye-mixture (25×SYPRO Orange and 15 μM Protein) was added to 8 μl compound solution.
4) Certain well positions were used as negative control.
5) The plates were prepared for duplicate measurement and centrifuged for 2 min at 1000 g.
6) In the measurement, 160 cycles of 0.5° C. were used (temperature ramp 15 s/cycle, 15° C. to 95° C.).
Data analysis: The dissociation curves were processed in Bio-Rad CFX Manager. Peak type was set to “negative”. In the case of Examples 1.1, 2.1, 3.1 and 4.1, at least two Tm measurements were averaged.

[2] = biological target: T1, human STING protein in THP1-Blue ISG cells (Homo sapiens, UniProt Q86WV6, G230A/H232R/R293Q/R71H); assay: In vitro cytokine induction, THP1-Blue ISG reporter cell assay (IRF-inducible SEAP); type: cell-based; settings: 24 hours incubation, SEAP OD at 620 nm
T1 construct: endogenous STING levels from the parental, unmodified THP1-Blue ISG cell lines; endogenous in cells; host or cells: THP1-Blue ISG cells
T1 sequence (Q86WV6 whole entry R71H/G230A/H232R/R293Q): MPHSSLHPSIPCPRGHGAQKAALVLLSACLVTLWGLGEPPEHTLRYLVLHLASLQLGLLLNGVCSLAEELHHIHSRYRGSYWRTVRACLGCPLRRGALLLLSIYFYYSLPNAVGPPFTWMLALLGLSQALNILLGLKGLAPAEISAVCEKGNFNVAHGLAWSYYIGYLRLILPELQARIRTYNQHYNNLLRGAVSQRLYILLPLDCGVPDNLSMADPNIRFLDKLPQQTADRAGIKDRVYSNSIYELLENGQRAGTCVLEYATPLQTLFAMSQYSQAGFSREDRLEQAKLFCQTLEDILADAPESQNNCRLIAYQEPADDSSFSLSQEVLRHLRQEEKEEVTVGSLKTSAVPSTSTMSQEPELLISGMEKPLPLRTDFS
Text: In Vitro Cytokine Induction
Activation of the STING protein expressed in THP1 cells results in an increase of interferon production. By the stable integration of an interferon regulatory factor (IRF)-inducible SEAP (secreted embryonic alkaline phosphatase) reporter construct the functional interferon signaling pathway can be monitored. Using Invivogen's QUANTI-Blue™ colorimetric enzyme assay and a suitable optical density (OD) reader the activity of SEAP can be detected and quantified. This technique could be used to characterize pharmacological modification of the STING protein.
Measurements of SEAP activity were performed in THP1-Blue ISG cells stably expressing the human STING protein and the IRF-inducible SEAP reporter construct. Cells were cultivated for expansion in RPMI1640 medium with 10% fetal calf serum, 50 μg/ml Penicillin-Streptomycin, 100 μg/ml Zeocin, and 100 μg/ml Normocin in a 37°, 95% humidity and 5% CO2 incubator. Assay-ready cells were stored as frozen stocks.
In preparation for the assay, the cells were thawed in Zeocin-/Normocin-free medium and were distributed into the assay plates with a density of 15000 cells/15 μL per well. Compounds were prepared by an 8- or 16-point serial dilution in 50% aqueous DMSO and a final dilution step into medium to ensure a final DMSO concentration of 0.5% in the assay. 5 μL of diluted compounds plus 5 μL medium were added to the plates, followed by a 24 hours incubation at 37° C.
At the day of the assay, 75 μl per well of Quanti-Blue reagent was added to all wells of the plate and the plate was incubated another 30 minutes at 37° C. The OD at 620 nm was measured on the EnVision reader (PerkinElmer). EC50 values and Hill slopes were derived from 8- or 16-point four parametric non-linear curve fittings with the Megalab software (Boehringer Ingelheim) using the OD at 620 nm.

[3] = 100 μM test compound, 3 μM target protein, Sodium Salt
[4] = 100 μM test compound, 3 μM target protein

Compound	hSTING Tm shift [1, 3] [°C]	EC50 ([2]; Sodium Salt) [nM]	ΔTm at 100 µM ([1]; 100 μM test compound, 3 μM target protein, read-out: hSTING Tm shift) [°C]	binding to human STING compared to the other diastereomer(s) of the same Example [1]	thermal shift compared to ribose Example 5/Compound 23 in WO 2016/145102 [1]	EC50 [2] [nM]	hSTING Tm shift [1, 4] [°C]
Cyclic (LNA-guanosine-(3′→5′)-phosphorothioate-2′-F-2′-deoxyadenosine-(3′→5′)-phosphorothioate), Sodium Salt [Example 3.2]	22.4	70					
Nc1ncnc2c1ncn2[C@@H]1O[C@@H]2COP(=O)(S)O[C@H]3[C@H]4OC[C@@]3(COP(=O)(S)O[C@H]2[C@H]1F)O[C@H]4n1cnc2c(N)ncnc21 (single isomer, unassigned) [Example 1.1, Cyclic (LNA-adenosine-(3′→5′)-phosphorothioate-2′-F-2′-deoxyadenosine-(3′→5′)-phosphorothioate)]			27.6	improved binding to human STING as compared to Example 1.2	significantly larger thermal shifts	110	
Cyclic (LNA-adenosine-(3′→5′)-phosphorothioate-2′-F-2′-deoxyinosine-(3′→5′)-phosphorothioate), Sodium Salt [Example 4.2]	21.4	110					
Cyclic (LNA-adenosine-(3′→5′)-phosphorothioate-2′-F-2′-deoxyguanosine-(3′→5′)-phosphorothioate), Sodium Salt [Example 2.2]	21.8	50					
Cyclic (LNA-adenosine-(3′→5′)-phosphorothioate-2′-F-2′-deoxyguanosine-(3′→5′)-phosphorothioate), Sodium Salt [Example 2.1]	30.3	140		improved binding to human STING as compared to Example 2.2	significantly larger thermal shifts		
Nc1nc2c(ncn2C2OC3COP(O)(=S)OC4C(COP(O)(=S)OC3C2F)OC(n2cnc3c(N)ncnc32)C4O)c(=O)[nH]1 (centres unmarked) [Example 5 Compound 23 in WO 2016/145102, 3′3′-RR-(2′F-G)(A), reference compound]							21.1
Cyclic (LNA-adenosine-(3′→5′)-phosphorothioate-2′-F-2′-deoxyinosine-(3′→5′)-phosphorothioate), Sodium Salt [Example 4.1]	30.0	170		improved binding to human STING as compared to Example 4.2	significantly larger thermal shifts		
Cyclic (LNA-guanosine-(3′→5′)-phosphorothioate-2′-F-2′-deoxyadenosine-(3′→5′)-phosphorothioate), Sodium Salt [Example 3.1]	30.7	150		improved binding to human STING as compared to other Example 3 diastereomers	significantly larger thermal shifts		
Cyclic (LNA-guanosine-(3′→5′)-phosphorothioate-2′-F-2′-deoxyadenosine-(3′→5′)-phosphorothioate), Sodium Salt [Example 3.4]	10.9	2000					
Nc1ncnc2c1ncn2[C@@H]1O[C@@H]2COP(=O)(S)O[C@H]3[C@H]4OC[C@@]3(COP(=O)(S)O[C@H]2[C@H]1F)O[C@H]4n1cnc2c(N)ncnc21 (single isomer, unassigned) [Example 1.2, Cyclic (LNA-adenosine-(3′→5′)-phosphorothioate-2′-F-2′-deoxyadenosine-(3′→5′)-phosphorothioate)]						60	21.0
Cyclic (LNA-guanosine-(3′→5′)-phosphorothioate-2′-F-2′-deoxyadenosine-(3′→5′)-phosphorothioate), Sodium Salt [Example 3.3]	21.6	130					
